A word on the chromatographic logD: it is a lipophilicity value derived from retention on a column. Lower therefore signals a more hydrophilic compound. As a reminder, the DC50 is the concentration at which degradation of the target reaches its halfway point. By Emax is commonly meant the maximal effect, on the per cent scale that the assay sets. A word on the IC50: it is the concentration at which inhibition is half-maximal.

Data set [1] in a line: Chromatographic hydrophobicity index, logD of the compound at pH 7.4. The format is physicochemical. The following applies: buffer.
The target of data set [2] is T1, von Hippel-Lindau disease tumor suppressor/Bromodomain-containing protein 4 (Homo sapiens, UniProt O60885+P40337). Briefly: PROTAC activity at VHL/BRD4 in HEK293 cells assessed as induction of BRD4 degradation incubated for 24 hrs by HTRF assay. Format: cell-based. (In general: In TR-FRET formats the signal depends on donor and acceptor labels being close together.)

Data set [3] has as its target T1, von Hippel-Lindau disease tumor suppressor/Bromodomain-containing protein 4. Briefly: PROTAC activity at VHL/BRD4 in HEK293 cells assessed as induction of BRD4 degradation by measuring maximal efficacy incubated for 24 hrs by HTRF assay relative to control. The format is cell-based.
The species named for a further data set is Homo sapiens. Description: Selectivity ratio of IC50 for NanoLuc-fused CRBN (unknown origin) transfected in live HEK293 cells to IC50 for NanoLuc-fused CRBN (unknown origin) transfected in permeabilized HEK293 cells. Format: cell-based.
For data set [4], the target named is T2, Protein cereblon/Bromodomain-containing protein 4 (Homo sapiens, UniProt O60885+Q96SW2). Description: PROTAC activity at CRBN/BRD4 in HEK293 cells assessed as induction of BRD4 degradation by measuring maximal efficacy incubated for 24 hrs by HTRF assay relative to control. Format: cell-based.
Data set [5] addresses T3, Protein cereblon/Bromodomain-containing protein 4/DNA damage-binding protein 1 (Homo sapiens) (UniProt O60885+Q96SW2+Q16531). Description: Binding affinity to biotinylated CRBN/DDB1/N-terminal GST-tagged BRD4-BD1 (unknown origin) assessed as ternary complex formation (KTF) by HTRF assay. Format: protein assay.
Data set [6] concerns the target T4, Protein cereblon (Homo sapiens, UniProt Q96SW2). Description: Binding affinity to NanoLuc-fused CRBN (unknown origin) transfected in permeabilized HEK293 cells using NanoGlo as substrate incubated for 2 hrs by NanoBRET assay. Format: cell-based. A general note: In BRET a luciferase serves as donor, and the signal depends on an acceptor being close.
Data set [7] addresses T2, Protein cereblon/Bromodomain-containing protein 4. Briefly: PROTAC activity at CRBN/BRD4 in HEK293 cells assessed as induction of BRD4 degradation incubated for 24 hrs by HTRF assay. The format is cell-based.
In data set [8] the target is T4, Protein cereblon. Description: Binding affinity to NanoLuc-fused CRBN (unknown origin) transfected in live HEK293 cells using NanoGlo as substrate incubated for 2 hrs by NanoBRET assay. The format is cell-based.
For data set [9], the target named is T3, Protein cereblon/Bromodomain-containing protein 4/DNA damage-binding protein 1 (Homo sapiens). Briefly: Binding affinity to biotinylated CRBN/DDB1/N-terminal GST-tagged BRD4-BD1(unknown origin) assessed as ternary complex formation (AUC) by HTRF assay. The format is protein assay.
For data set [10], the target named is Bromodomain-containing protein 4 (Homo sapiens, UniProt O60885). Description: Binding affinity to N-terminal GST-tagged BRD4-BD1 (unknown origin) using biotinylated histon4 peptide as substrate incubated for 30 mins by HTRF assay.

T1 sequence (P40337 whole entry, looked up, other chains not shown): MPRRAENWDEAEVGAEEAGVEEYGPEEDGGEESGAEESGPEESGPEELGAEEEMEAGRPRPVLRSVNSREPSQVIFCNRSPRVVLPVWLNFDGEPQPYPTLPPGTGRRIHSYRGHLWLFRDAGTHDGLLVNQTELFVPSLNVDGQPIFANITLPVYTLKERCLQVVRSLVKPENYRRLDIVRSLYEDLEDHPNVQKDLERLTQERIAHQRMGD

The compound `Cc1ncsc1-c1ccc(CNC(=O)[C@@H]2C[C@@H](O)CN2C(=O)[C@H](C(C)C)N2Cc3ccccc3C2=O)c(OCCCOCCC(=O)C[C@@H]2N=C(c3ccc(Cl)cc3)c3c(sc(C)c3C)-n3c(C)nnc32)c1` showed a chromatographic logD in data set [1] of 3.16. In addition, the DC50 in data set [2] came to 13.4 nM. In addition, the Emax in data set [3] was 79%.
`Cc1sc2c(c1C)C(c1ccc(Cl)cc1)=N[C@@H](CCCCCNC(=O)COc1cccc3c1C(=O)N(C1CCC(=O)NC1=O)C3=O)c1nnc(C)n1-2` (stereo not given in full) showed a chromatographic logD in data set [1] of 2.81. In addition, in the data set listed under Homo sapiens, the Ratio IC50 amounted to 4.2. Further, the maximum response (Emax) in data set [4] came out at 76%. Further, in data set [5], the K was 29.2 nM. Further, the IC50 on Protein cereblon [6] turned out to be 121 nM; at Protein cereblon [8] it was 503 nM; in data set [10], 66.9 nM. Further, the DC50 in [7] was determined as 10.8 nM. Further, the AUC in data set [9] turned out to be 156.
With `Cc1sc2c(c1C)C(c1ccc(Cl)cc1)=N[C@@H](CC(=O)NCCCCNC(=O)COc1cccc3c1C(=O)N(C1CCC(=O)NC1=O)C3=O)c1nnc(C)n1-2` (stereo not given in full), the chromatographic logD in data set [1] was 2.16. Moreover, in data set [4], the Emax came to 80%. Also, the K in data set [5] was 9.4 nM. Further, in [9], the AUC was 163.
With `Cc1sc2c(c1C)C(c1ccc(Cl)cc1)=N[C@@H](CC(=O)OCCCCNC(=O)COc1cccc3c1C(=O)N(C1CCC(=O)NC1=O)C3=O)c1nnc(C)n1-2` (stereo not given in full), the chromatographic logD in data set [1] came out at 2.68. Besides, the Ratio IC50 in the data set filed under Homo sapiens is 2.4. In addition, the Emax in [4] came out at 83%. In data set [5], the K stood at 5 nM. The IC50 was 68.8 nM on Protein cereblon [6], 264 nM on Protein cereblon [8] and 2.3 nM in [10]. Further, in data set [7], the DC50 stood at 5.4 nM. Also, the AUC in data set [9] is 158.
As to `Cc1ncsc1-c1ccc(CNC(=O)[C@@H]2C[C@@H](O)CN2C(=O)[C@H](C(C)C)N2Cc3ccccc3C2=O)c(OCCCOCCNC(=O)C[C@@H]2N=C(c3ccc(Cl)cc3)c3c(sc(C)c3C)-n3c(C)nnc32)c1`, the chromatographic logD in data set [1] is 2.78. Further, in data set [2], the DC50 worked out at 68.3 nM. The Emax in [3] was determined as 87%.
In the case of `Cc1sc2c(c1C)C(c1ccc(Cl)cc1)=N[C@@H](CCNCCCCNC(=O)COc1cccc3c1C(=O)N(C1CCC(=O)NC1=O)C3=O)c1nnc(C)n1-2` (stereo not given in full), in data set [1], the chromatographic logD came to 1.66. Further, in the data set listed under Homo sapiens, the Ratio IC50 is 110. Besides, the Emax in data set [4] was found to be 2%. The K in data set [5] worked out at 108 nM. Also, the IC50 was determined as 102 nM at Protein cereblon [6], 11300 nM at Protein cereblon [8] and 453 nM in data set [10]. Also, the DC50 in [7] is over 11000 nM. Also, the AUC in data set [9] worked out at 71.5.
In the case of `Cc1ncsc1-c1ccc(CNC(=O)[C@@H]2C[C@@H](O)CN2C(=O)[C@H](C(C)C)N2Cc3ccccc3C2=O)c(OCCCOCCOC(=O)C[C@@H]2N=C(c3ccc(Cl)cc3)c3c(sc(C)c3C)-n3c(C)nnc32)c1`, the chromatographic logD in data set [1] is 3.25. In [2], the DC50 is 15.8 nM. In data set [3], the Emax came to 89%.
Consider `Cc1ncsc1-c1ccc(CNC(=O)[C@@H]2C[C@@H](O)CN2C(=O)[C@H](C(C)C)N2Cc3ccccc3C2=O)c(OCCCOCCCC[C@@H]2N=C(c3ccc(Cl)cc3)c3c(sc(C)c3C)-n3c(C)nnc32)c1`, for which the chromatographic logD in [1] amounted to 3.38. In [2], the DC50 was 228 nM. For the same compound, in data set [3], the maximal response (Emax) came out at 58%.
`Cc1sc2c(c1C)C(c1ccc(Cl)cc1)=N[C@@H](CC(=O)CCCCNC(=O)COc1cccc3c1C(=O)N(C1CCC(=O)NC1=O)C3=O)c1nnc(C)n1-2` (stereo not given in full) registered a chromatographic logD in data set [1] of 2.57. The Ratio IC50 in the data set filed under Homo sapiens worked out at 3.9. For the same compound, in data set [4], the Emax was found to be 85%. Also, the K in data set [5] amounted to 6.7 nM. Besides, the IC50 is 107 nM at Protein cereblon [6], 422 nM at Protein cereblon [8] and 24.2 nM in data set [10]. Moreover, the DC50 in data set [7] is 9.2 nM. Besides, the AUC in data set [9] was 251.
Turning to `Cc1ncsc1-c1ccc(CNC(=O)[C@@H]2C[C@@H](O)CN2C(=O)[C@H](C(C)C)N2Cc3ccccc3C2=O)c(OCCCOCCNCC[C@@H]2N=C(c3ccc(Cl)cc3)c3c(sc(C)c3C)-n3c(C)nnc32)c1`, in data set [1], the chromatographic logD amounted to 2.3. The DC50 in [2] is over 11000 nM. In addition, the Emax in [3] turned out to be 14%.

The values are drawn from ChEMBL document CHEMBL6087442, “Modulating the Potency of BRD4 PROTACs at the Systems Level with Amine-Acid Coupling Reactions” (J Med Chem, 2025).
